{"source": "patent US20220339143A1", "about": "“TAK-925 FOR USE IN TREATING NARCOLEPSY” (Takeda Pharmaceutical Company Limited, priority 2019, published 2022)", "test": "Single dose PK in patients with narcolepsy (Cohorts 5, 6 and 7), plasma", "format": "in vivo, human", "conditions": "for AUC(0-inf) / AUC(0-t) / Cmax / AUC / concentration at 9 h / Tmax / Vd / clearance: human, plasma, intravenous; for AUC: read-out: AUC24; for concentration at 9 h: read-out: Ceoi; for clearance: read-out: CL (converted)", "description": "This study investigates (i) the safety and tolerability of Compound A (methyl (2R,3S)-3-((methylsulfonyl)amino)-2-(((cis-4-phenylcyclohexyl)oxy)methyl)piperidine-1-carboxylate) when a single dose given as a 9 hour continuous IV infusion is administered to healthy adults, healthy elderly subjects and patients with narcolepsy type 1 (NT1); (ii) the pharmacokinetics of Compound A when a single dose given as a 9 hour continuous IV infusion is administered to healthy adults, healthy elderly subjects and patients with narcolepsy type 1; and (iii) the pharmacodynamics (PD) effects of Compound A, primarily by evaluation of the sleep latency on MWT when a single dose given as a 9 hour continuous IV infusion is administered to patients with narcolepsy type 1.\nIn Part 2, NT1 patients received a single dose of Compound A or placebo administered as a continuous IV infusion over a 9-hour period during the day. A 40-minute Maintenance of Wakefulness Test (MWT) was conducted 4 times during the continuous IV infusion to assess effects on wakefulness in soporific conditions at 2, 4, 6 and 8 hours from start of infusion. Three cohorts of patients were enrolled (n=14 total).\nPharmacokinetics: Concentrations of Compound A in plasma, and CSF, and pharmacokinetics parameters.\nOn average, the time to reach the plateau appeared to be approximately 4 hours after the start of infusion. […] After switching off the IV infusion, Compound A plasma concentrations declined rapidly and in a biphasic manner with a mean terminal disposition phase t1/2z ranging approximately from 3.5 to 4.1 hours across the doses.", "key": {"[1]": {"conditions": "Cmpd A 5 mg, Mean, Cohort 5, 6, 7"}, "[2]": {"conditions": "Cmpd A 5 mg, Median, Cohort 5, 6, 7"}, "[3]": {"conditions": "Cmpd A 11.2 mg, Mean, Cohort 5, 6, 7"}, "[4]": {"conditions": "Cmpd A 11.2 mg, Median, Cohort 5, 6, 7"}, "[5]": {"conditions": "Cmpd A 44.8 mg, Mean, Cohort 5, 6, 7"}, "[6]": {"conditions": "Cmpd A 44.8 mg, Median, Cohort 5, 6, 7"}, "[7]": {"conditions": "5 mg, Cmpd A 5 mg, Geo Mean, Cohort 5, 6, 7"}, "[8]": {"conditions": "5 mg, Cmpd A 5 mg, Mean, Cohort 5, 6, 7"}, "[9]": {"conditions": "5 mg, Cmpd A 5 mg, Median, Cohort 5, 6, 7"}, "[10]": {"conditions": "11.2 mg, Cmpd A 11.2 mg, Geo Mean, Cohort 5, 6, 7"}, "[11]": {"conditions": "11.2 mg, Cmpd A 11.2 mg, Mean, Cohort 5, 6, 7"}, "[12]": {"conditions": "11.2 mg, Cmpd A 11.2 mg, Median, Cohort 5, 6, 7"}}, "note": "Entries after “also recorded” stand apart in the source; their conditions may differ. Like-named read-outs stand apart in the source and are kept apart here.", "data": [{"smiles": "COC(=O)N1CCC[C@H](NS(C)(=O)=O)[C@@H]1CO[C@H]1CC[C@@H](c2ccccc2)CC1", "note": "[Compound A, methyl (2R,3S)-3-((methylsulfonyl)amino)-2-(((cis-4-phenylcyclohexyl)oxy)methyl)piperidine-1-carboxylate]", "values": [{"measurement": "AUCinf D", "setting": "[1]", "value": 17.88, "unit": "ng·h/mL/mg"}, {"measurement": "CL", "setting": "[1]", "value": 57.05, "unit": "L/h"}, {"measurement": "Cmax D", "setting": "[1]", "value": 2.050, "unit": "ng/mL/mg"}, {"measurement": "t½z", "setting": "[1]", "value": 3.465, "unit": "h"}, {"measurement": "AUCinf D", "setting": "[2]", "value": 18.20, "unit": "ng·h/mL/mg"}, {"measurement": "Cmax D", "setting": "[2]", "value": 2.000, "unit": "ng/mL/mg"}, {"measurement": "Vz", "setting": "[2]", "value": 284.5, "unit": "L"}, {"measurement": "t½z", "setting": "[2]", "value": 3.380, "unit": "h"}, {"measurement": "AUCinf D", "setting": "[3]", "value": 17.95, "unit": "ng·h/mL/mg"}, {"measurement": "Cmax D", "setting": "[3]", "value": 1.963, "unit": "ng/mL/mg"}, {"measurement": "Vss", "setting": "[3]", "value": 114.1, "unit": "L"}, {"measurement": "Vz", "setting": "[3]", "value": 316.8, "unit": "L"}, {"measurement": "t½z", "setting": "[3]", "value": 3.923, "unit": "h"}, {"measurement": "AUCinf D", "setting": "[4]", "value": 18.05, "unit": "ng·h/mL/mg"}, {"measurement": "Cmax D", "setting": "[4]", "value": 1.990, "unit": "ng/mL/mg"}, {"measurement": "Vss", "setting": "[4]", "value": 113.5, "unit": "L"}, {"measurement": "Vz", "setting": "[4]", "value": 336.5, "unit": "L"}, {"measurement": "t½z", "setting": "[4]", "value": 4.020, "unit": "h"}, {"measurement": "AUCinf D", "setting": "[5]", "value": 21.45, "unit": "ng·h/mL/mg"}, {"measurement": "Cmax D", "setting": "[5]", "value": 2.195, "unit": "ng/mL/mg"}, {"measurement": "t½z", "setting": "[5]", "value": 4.130, "unit": "h"}, {"measurement": "AUCinf D", "setting": "[6]", "value": 20.80, "unit": "ng·h/mL/mg"}, {"measurement": "Cmax D", "setting": "[6]", "value": 2.170, "unit": "ng/mL/mg"}, {"measurement": "t½z", "setting": "[6]", "value": 3.885, "unit": "h"}, {"measurement": "systemic exposures and clearance in NT1 patients vs healthy adults", "setting": "IV administration", "value": "consistent with those observed in healthy adults; also recorded: comparable with those observed in healthy adults"}, {"measurement": "dose proportionality of mean plasma systemic exposure", "setting": "doses of 5 to 44.8 mg, NT1 patients", "value": "increased approximately dose proportionally"}, {"measurement": "AUC(0-inf)", "setting": "[7]", "value": 88.5, "unit": "ng·h/mL"}, {"measurement": "AUC(0-t)", "setting": "[7]", "value": 86.2, "unit": "ng·h/mL"}, {"measurement": "Cmax", "setting": "[7]", "value": 10.1, "unit": "ng/mL"}, {"measurement": "AUC", "setting": "[7]", "value": 88, "unit": "ng·h/mL"}, {"measurement": "concentration at 9 h", "setting": "[7]", "value": 9.65, "unit": "ng/mL"}, {"measurement": "AUC(0-inf)", "setting": "[8]", "value": 89.3, "unit": "ng·h/mL"}, {"measurement": "AUC(0-t)", "setting": "[8]", "value": 87.2, "unit": "ng·h/mL"}, {"measurement": "Cmax", "setting": "[8]", "value": 10.2, "unit": "ng/mL"}, {"measurement": "Tmax", "setting": "[8]", "value": 8, "unit": "h"}, {"measurement": "AUC", "setting": "[8]", "value": 88.8, "unit": "ng·h/mL"}, {"measurement": "concentration at 9 h", "setting": "[8]", "value": 9.71, "unit": "ng/mL"}, {"measurement": "Vd", "setting": "5 mg, Cmpd A 5 mg, Mean, Cohort 5, 6, 7, read-out: Vss", "value": 112, "unit": "L"}, {"measurement": "Vd", "setting": "5 mg, Cmpd A 5 mg, Mean, Cohort 5, 6, 7, read-out: Vz", "value": 282, "unit": "L"}, {"measurement": "AUC(0-inf)", "setting": "[9]", "value": 91.1, "unit": "ng·h/mL"}, {"measurement": "AUC(0-t)", "setting": "[9]", "value": 89.2, "unit": "ng·h/mL"}, {"measurement": "Cmax", "setting": "[9]", "value": 9.99, "unit": "ng/mL"}, {"measurement": "Tmax", "setting": "[9]", "value": 9, "unit": "h"}, {"measurement": "AUC", "setting": "[9]", "value": 90.8, "unit": "ng·h/mL"}, {"measurement": "clearance", "setting": "[9]", "value": 915, "unit": "mL/min"}, {"measurement": "concentration at 9 h", "setting": "[9]", "value": 9.99, "unit": "ng/mL"}, {"measurement": "Vd", "setting": "5 mg, Cmpd A 5 mg, Median, Cohort 5, 6, 7, read-out: Vss", "value": 110, "unit": "L"}, {"measurement": "AUC(0-inf)", "setting": "[10]", "value": 201, "unit": "ng·h/mL"}, {"measurement": "AUC(0-t)", "setting": "[10]", "value": 199, "unit": "ng·h/mL"}, {"measurement": "Cmax", "setting": "[10]", "value": 21.9, "unit": "ng/mL"}, {"measurement": "AUC", "setting": "[10]", "value": 199, "unit": "ng·h/mL"}, {"measurement": "concentration at 9 h", "setting": "[10]", "value": 21.2, "unit": "ng/mL"}, {"measurement": "AUC(0-inf)", "setting": "[11]", "value": 201, "unit": "ng·h/mL"}, {"measurement": "AUC(0-t)", "setting": "[11]", "value": 199, "unit": "ng·h/mL"}, {"measurement": "Cmax", "setting": "[11]", "value": 22, "unit": "ng/mL"}, {"measurement": "Tmax", "setting": "[11]", "value": 7.75, "unit": "h"}, {"measurement": "AUC", "setting": "[11]", "value": 199, "unit": "ng·h/mL"}, {"measurement": "clearance", "setting": "[11]", "value": 932, "unit": "mL/min"}, {"measurement": "concentration at 9 h", "setting": "[11]", "value": 21.2, "unit": "ng/mL"}, {"measurement": "AUC(0-inf)", "setting": "[12]", "value": 202, "unit": "ng·h/mL"}, {"measurement": "AUC(0-t)", "setting": "[12]", "value": 200, "unit": "ng·h/mL"}, {"measurement": "Cmax", "setting": "[12]", "value": 22.3, "unit": "ng/mL"}]}]}
